Experiment: Encapsulation efficiency of liposomes and lipodisks by RP-HPLC
Conditions: for Change of EE in lipodisks compared with liposomes: curcumin D/L 0.01, acyclovir D/L 0.03; for EE% (encapsulation efficiency), D/L 0.1: D/L ratio 0.1 (w/w), N = 3

Row | SMILES | Change of EE in lipodisks compared with liposomes | EE% (encapsulation efficiency), D/L 0.1 ([…]) | Encapsulation efficiency, lipodisks D/L 0.01 (D/L ratio 0.01) | Encapsulation efficiency, liposomes D/L 0.01 (liposomes, D/L ratio 0.01) | Encapsulation efficiency, liposomes D/L 0.03 ([…], D/L ratio 0.03, passive loading) | Encapsulation efficiency, lipodisks D/L 0.03 (lipodisks (62% DSPE-PEG2000), D/L ratio 0.03)
1 | Nc1nc2c(ncn2COCCO)c(=O)[nH]1 [Acyclovir, acyclovir] | did not significantly increase | – | – | – | – | –
2 | COc1cc(/C=C/C(=O)CC(=O)/C=C/c2ccc(O)c(OC)c2)ccc1O [Curcumin, curcumin] | remained constant | 11.41% | ~ 82.4% | ~ 82.4% | – | –
3 | C[C@@H]1C[C@H]2[C@@H]3CCC4=CC(=O)C=C[C@]4(C)[C@@]3(F)[C@@H](O)C[C@]2(C)[C@@]1(O)C(=O)CO [Dexamethasone, dexamethasone] | – | 1.49% | 27.46% | – | 2.3% | 9.7%

Source: paper PMC8516330 (The AAPS Journal, 2021)
